Experimental data reported in patent publication US20240216519A1, “SMALL HYDROPHOBIC PROTEIN DRUG CONJUGATES AND USES THEREOF” (priority 2021, published 2024).
Where “and” joins values, the source holds several entries; their conditions need not be identical. Equal values may be shown once. Where no end group is shown, it is not given here. TAMRA = carboxytetramethyl rhodamine on alpha-amino group of Met1

Tests used:
human GLP-1 receptor = human GLP-1 receptor (Homo sapiens, UniProt P43220); test: cAMP accumulation, human GLP-1 receptor; format: cell-based; parameters: expressed in transfected cells; host or cells: COS-7 (methods)
human GLP-1 receptor, sequence (P43220 24-463): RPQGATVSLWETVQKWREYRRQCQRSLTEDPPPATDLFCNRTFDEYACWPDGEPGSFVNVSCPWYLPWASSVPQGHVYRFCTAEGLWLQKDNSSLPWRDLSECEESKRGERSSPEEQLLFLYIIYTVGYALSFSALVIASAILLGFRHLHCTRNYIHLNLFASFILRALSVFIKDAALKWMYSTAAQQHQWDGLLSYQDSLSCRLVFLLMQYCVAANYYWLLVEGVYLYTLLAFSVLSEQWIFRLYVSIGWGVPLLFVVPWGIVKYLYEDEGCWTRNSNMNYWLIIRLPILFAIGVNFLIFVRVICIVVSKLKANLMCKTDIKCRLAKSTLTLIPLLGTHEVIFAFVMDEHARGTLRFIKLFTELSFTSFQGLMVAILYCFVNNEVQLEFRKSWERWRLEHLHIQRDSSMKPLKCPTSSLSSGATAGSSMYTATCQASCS
Method: (§1) Transient transfection of COS-7 cells was performed using calcium phosphate precipitation method. Briefly, a total of 10 ug of receptor DNA was diluted in TE-buffer ([…] Tris-HCl and 1 mM EDTA, pH 7.5) to a total of 105 ul, to which 15 ul of 2 M CaCl2) was added. The DNA-calcium co-precipitation was gently and slowly added to 120 ul 2× HEPES-buffered saline (HBS), and the transfection mixture was incubated at room temperature for 45 min. The total transfection mixture was added to the cells and incubated for 5 hours at 37° C. and 10% CO2, with the addition of 75 ul chloroquine to the growth medium. After 5 hours, the transfection medium was removed and replaced with regular growth medium. The cells were used in experiment 40-48 h after termination of the transfection procedure.
(§2) For the cAMP assay, the COS-7 cells were seeded into 96-well plates (35.000 cells/well) and washed with HBS prior to incubation with 100 ul […] isobutylmethylzanthine (IBMX) for 30 min at 37° C. […] After incubation, the medium was removed, and cells were treated according to the protocol ‘three reagent addition’ procedure for the HitHunter cAMP XS+Assay by DiscoverX, USA.

CaCo-2 cells = test: Transport study: diffusion of FITCs through tight monolayer of Caco2 cells; format: cell-based; details: basal addition of FITCs together with ligand
Method: CaCo-2 cells were seeded in transwell chambers (basal) and two times TEER was measured until day 17-21 post seeding. TEER experiments were performed afte 17-21 days post seeding in wells with higher TEER as 1000 ohms (proof of a tight cell monolatyer. Caco2 cells were infected basal with mumps virus (MuV Jerryl Lynn strain, WT or SH-protein deletion virus) at a multiplicity of infection of 3. TEER was measured continuously performing CellZcope experiments.
Transport studies were performed until day 17-21 post seeding as described above for the Cellzcope experiments. Ligand or control induced changes in the tightness of the cell monolayer was measured passively by the basal addition of the fluorescence dye (FITCs) together with the ligands or controls. Increase of FITCs apical was detected by collecting samples after different time points.

[1] = Plasma and CSF concentrations after injection into vena cava (RIA GLP-1 assay); format: in vivo; details: rat
Method: Male Sprague Dawley rats were purchased from Charles Rivers. Animals were anesthetized by hypnorm/dormicum, and restrained in a stereotactic instrument. […] Blood samples were collected prior to the injection of test compounds and straight after CSF aspiration.
The assay buffer was 100 mM Tris buffer with pH 8.5 containing 1% (wt/vol) human serum albumin, 0.01 mM valine-pyrrolidide and 500 KIE aprotinin (final concentrations). […] Plasma and CSF concentrations were measured after dilution in assay buffer. Free and bound moieties were separated with plasma-coated charcoal.

[2] = test system: Diet induced obese C57BL/6NTac male mice; test: Acute food intake in diet induced obese mice, s.c. (Example 11); format: in vivo, mouse; details: 15 nmol/kg s.c.
Method: Diet induced obese C57BL/6NTac male mice were purchased from Taconic and continued on a high fat high sucrose diet with free access to water. One week after arrival, animals were double or single housed. […] Thirty minutes prior peptide injection, all mice were administered subcutaneously with DDP-4 inhibitor Valine-pyrrolidide (3 mg/mouse). Food intake was measured after 1, 2, 4 and 14 hours (FIG. 15A-D).

C57BL/6J mice [3] = test: Acute food intake in lean mice, s.c. (Example 10); format: in vivo, mouse
Method: Female C57BL/6J mice were purchased from Charles Rivers. One week before study initiation the mice were single housed with free access to food and water. […] Thirty minutes prior peptide injection, all mice were administered subcutaneously with DDP-4 inhibitor Valine-pyrrolidide (1.5 mg/mouse). Food intake was measured after 1, 2, 4 and 14 hours (FIG. 14A-D).
Results shown are combined data from five studies with an identical study design as described above. Between each study mice had at least one week washout period.

C57BL/6J mice [4] = test: Food intake of fasted C57BL/6J mice after i.p. injection (Example 8); format: in vivo, mouse; details: 200 nmol/kg i.p.
Method: Female C57BL/6J mice were purchased from Charles Rivers. […] The animals were housed in individual cages, with access to food and water, and food intake was measured 1 and 2 hours after injection.

rat GLP-1 receptor = target: T1, rat GLP-1 receptor (Rattus norvegicus, UniProt P32301); test: cAMP accumulation, rat GLP-1 receptor; format: cell-based; details: rat GLP-1R-expressing HEK293 cells; read-out: EC50, intracellular cAMP accumulation
T1 construct: expressed in transfected cells; host or cells: COS-7 (methods)
T1 sequence (P32301 22-463): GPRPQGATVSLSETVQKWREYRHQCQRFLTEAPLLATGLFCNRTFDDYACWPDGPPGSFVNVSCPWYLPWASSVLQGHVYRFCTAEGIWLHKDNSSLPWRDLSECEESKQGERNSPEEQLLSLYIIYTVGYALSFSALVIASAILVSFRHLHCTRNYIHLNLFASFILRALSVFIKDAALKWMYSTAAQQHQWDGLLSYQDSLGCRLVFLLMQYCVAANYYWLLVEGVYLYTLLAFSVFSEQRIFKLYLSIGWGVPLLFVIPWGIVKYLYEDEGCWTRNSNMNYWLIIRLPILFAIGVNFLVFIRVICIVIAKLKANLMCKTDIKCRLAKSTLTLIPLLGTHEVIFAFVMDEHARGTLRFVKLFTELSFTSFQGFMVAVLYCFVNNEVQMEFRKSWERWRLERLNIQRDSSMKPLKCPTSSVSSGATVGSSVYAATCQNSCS
Method: as §1, §2

[5] = test system: choroid plexus of the GPR125 KO mouse brain; test: TAMRA labelled SH-protein binding to cryo-sections, GPR125 KO mouse brain; details: 1 h incubation
Method: (§3) SH protein (SEQ ID NO: 74) with a N-terminal carboxytetramethyl rhodamine attached through its carboxyl-group to the N-terminal alpha amino-group of the first Methionine was used for making the TAMRA labelled SH-protein (SEQ ID NO: 129). A mixture of 5-(and-6)-Carboxytetramethylrhodamine was used.
(§4) A whole body perfusion was performed of mice and brains were dissected and frozen at −80C. Cryo-sections of mouse brains (WT and GPR125 KO mouse (Spina et al. 2021)) were generated and the TAMRA-labelled SH-protein was incubated on the cryosections at different concentrations or buffer. Afterwards the sections were mounted with mounting media containing a DAPI stain.

[6] = test system: choroid plexus of the WT mouse brain; test: TAMRA labelled SH-protein binding to cryo-sections, WT mouse brain; details: 1 h incubation
Method: as §3, §4

[7] = CSF 10 min after i.v. injection

CC[C@H](C)[C@H](NC(=O)[C@H](C)NC(=O)[C@@H]1CCCN1)C(=O)N[C@@H](CCC(N)=O)C(=O)N1CCC[C@H]1C(=O)N1CCC[C@H]1C(=O)N[C@@H](CC(C)C)C(=O)N[C@@H](Cc1ccc(O)cc1)C(=O)N[C@@H](CC(C)C)C(=O)N[C@H](C(=O)NCCOCCOCC(=O)NCCCC[C@H](NC(=O)[C@H](C)NC(=O)[C@H](C)NC(=O)[C@H](CCC(N)=O)NC(=O)CNC(=O)[C@H](CCC(=O)O)NC(=O)[C@H](CC(C)C)NC(=O)[C@H](Cc1ccc(O)cc1)NC(=O)[C@H](CO)NC(=O)[C@H](CO)NC(=O)[C@@H](NC(=O)[C@H](CC(=O)O)NC(=O)[C@H](CO)NC(=O)[C@@H](NC(=O)[C@H](Cc1ccccc1)NC(=O)[C@@H](NC(=O)CNC(=O)[C@H](CCC(=O)O)NC(=O)[C@H](C)NC(=O)[C@@H](N)Cc1c[nH]cn1)[C@@H](C)O)[C@@H](C)O)C(C)C)C(=O)N[C@@H](CCC(=O)O)C(=O)N[C@@H](Cc1ccccc1)C(=O)N[C@H](C(=O)N[C@@H](C)C(=O)N[C@@H](Cc1c[nH]c2ccccc12)C(=O)N[C@@H](CC(C)C)C(=O)N[C@H](C(=O)N[C@@H](CCCNC(=N)N)C(=O)NCC(=O)N[C@@H](CCCNC(=N)N)C(N)=O)C(C)C)[C@@H](C)CC)[C@@H](C)O [SH(2-11)-GLP-1(7-36)]
EC50 (human GLP-1 receptor): 130 pM | integrity of tight monolayer of CaCO-2 cells (uptake of fluorescent dye FITCs) (CaCo-2 cells): decreased integrity | level at time molar at 10 min ([1]; male, Sprague Dawley, cerebrospinal fluid (CSF), iv, CSF 10 minutes after injection into vena cava, SH(2-11)-GLP-1 500, GLP-1 50 (injection), read-out: CSF conc): 277 µM | detectable in CSF by RIA GLP-1 assay ([1]; 10 min after i.v. injection): detectable | amount detectable within the CSF, of the total injected concentration [1, 7]: approximately 55% | concentrated more in the CSF compared to GLP-1(7-36) [1, 7]: 10 times | Ratio (CSF conc to injection conc) ([1]; CSF 10 minutes after injection): 0.554 | higher presence within the CSF ([1]; compared to GLP-1(7-36)): 10 fold | food intake compared to vehicle ([2]; after 1 hour, conjugate also vs GLP-1(7-36)): decreased food intake significantly | food intake compared to vehicle ([2]; after 2 hours, conjugate also vs GLP-1(7-36)): decreased food intake significantly | food intake compared to vehicle ([2]; after 4 hours, conjugate also vs GLP-1(7-36)): decreased food intake significantly | food intake compared to vehicle ([2]; after 14 hours): significantly decreased | food intake compared to vehicle (C57BL/6J mice [3]; 15 nmol/kg s.c., after 1 hour): decreased food intake significantly | food intake compared to vehicle (C57BL/6J mice [3]; 15 nmol/kg s.c., after 2 hours): decreased food intake significantly | food intake compared to vehicle (C57BL/6J mice [3]; 15 nmol/kg s.c., after 4 hours): decreased food intake significantly | food intake compared to vehicle (C57BL/6J mice [3]; 30 nmol/kg s.c., after 1 hour): decreased their food intake significantly | food intake compared to vehicle (C57BL/6J mice [3]; 30 nmol/kg s.c., after 2 hours): decreased their food intake significantly | food intake compared to vehicle (C57BL/6J mice [3]; 30 nmol/kg s.c., after 4 hours): still present | food intake compared to vehicle (C57BL/6J mice [3]; 30 nmol/kg s.c., after 14 hours): significant lower food intake | food intake compared to vehicle (C57BL/6J mice [4]; 1 hour after injection): decreases the food intake significantly | food intake compared to vehicle (C57BL/6J mice [4]; 2 hours after injection): decreases the food intake significantly | EC50 (rat GLP-1 receptor): 130 pM

TAMRA labelled SH-protein: SH protein (SEQ ID NO: 74) with N-terminal carboxytetramethyl rhodamine on the alpha amino-group of the first Methionine ({TAMRA}-MPAIQPPLYLTFLLLILLYLIITLYVWIILTVTYKTAVRHAALYQRSFFHWSFDHSL)
concentrations at which binding to the choroid plexus is seen (only at higher concentrations) [5]: 22 µM and 11 µM | concentration at which binding to the choroid plexus is still seen [6]: 2,25 UM
